Measured values: US5496703A, “Indirect immunoassay for dioxinlike compounds” (priority 1993, dated 1996)
“Also recorded” adds a separate entry of the source.

Assays:
[1] = tested on: total hepatic S-9 protein tyrosylphosphorylation; test: ELISA with antiphosphotyrosine monoclonal antibody, total hepatic S-9 protein tyrosylphosphorylation, mice dosed i.p.; type: in vivo, C57BL/6 mice
Method: Female, C57BL/6 mice (or any cytochrome P-450IA1 inducible strain) were obtained from Harton Sprague Dawley (Indianapolis, Ind.). Experiments were performed using four to six week old, female mice weighing approximately 16 to 20 g. Mice were fed Prolab RMH 1000 rat, mouse and hamster food (Agway, Cortland, N.Y.) and received tap water ad libitum. All mice were housed three to five per cage and maintained on a photoperiod of 12 hours. Mice were killed 24 hours following an intraperitoneal injection of either corn oil alone or TCDD (Analabs) at 0.25, 0.5, 1, 2, 4, 10, 50 μg/kg, the volume of the injections ranged from 0.1 to 0.2 ml per mouse. Hepatic S-9 fractions were prepared by homogenizing the liver in 3 times the volume of 0.15M KCl. Following a 9000×g centrifugation for 20 minutes, the supernatant (S-9) fraction was carefully removed and quickly frozen for storage at -80° C.
ELISA were performed with 96-well microtiter plates precoated with antigen. S-9 was used as antigen and was prepared as a series of geometric dilutions ranging from 0.4 to 500 μg protein/mL PBS. One-tenth mL from each dilution was promptly pipetted into the wells of a the microtiter plate in quadruplicate. Plates were incubated overnight at 4° C. After washing with 0.05% Tween 20 (polyoxyethylenesorbitan monolaurate) in phosphate buffered saline (PBS), individual wells were saturated with 0.2 mL bovine serum albumin (20 mg/mL in PBS) for 2 hours at 37° C. Wells were then incubated with antiphosphotyrosine monoclonal antibody (1.5 μg/mL ascites fluid) in 1 mg/mL bovine serum albumin and 0.05% Tween 20 in PBS, and bound for 1 to 1.5 hours at 22° C. Incubation with horseradish peroxidase-linked antimouse IgG (Sigma, St. Louis; 0.5×10^3 mg IgG/mL PBS) and subsequent washing was performed as with the original monoclonal antibody. Peroxidase activity was determined after incubation with substrate (0.03% H2 O2 and 1 mM 2,2'-azinodi(d-ethyl-benzthiazoline sulfonic acid-6) dissolved in 100 mM sodium citrate (pH 4.2) at 22° C. At the first visualization of color change A415 values were recorded.

[2] = tested on: protein tyrosylphosphorylation in X3 human lymphoblastoma cells; test: Immunoblot / densitometry of X3 cell lysate phosphotyrosyl proteins; type: cell-based
Method: The indicated densitometric measurements were made on a BioImage AK Kodak Visage 110.
The X3 human lymphoblastoma cells (Genetest, Wolburn, Mass.) were grown in 75 cm^2 T-flasks in RPMI 1640 medium (Gibco) containing 9% horse serum. Any cell or cell line expressing cytochrome P-450IA1 may be used. The cells were cultured at 37° C. in a 5% CO2 (balance air) environment. Cells were subcultured by centrifuging (1000 rpm, 3 minutes) and resuspended in fresh media to a volume of 50 mL (at a cell density of 1.0×10^6 cells/mL). The TCDD-corn oil solution was homogenized with serum to a final concentration of 0.10 μg/mL. The TCDD-serum was added at concentrations of 0, 0.02, 0.05, 0.1, 0.5 and 1.0 nM per flask and incubated for 16 hours. After the appropriate incubation time, the cells were harvested by centrifugation and washed three times (PBS, […]). A final cell count was then determined.
The separation of cell lysate proteins by means of SDS PAGE was performed by mixing the cell lysate 1:1 with a double strength sodium dodecyl sulfate sample buffer and heating the solution at 100° C. for 3 minutes prior to one-dimensional SDS polyacrylamide gel electrophoresis with 10% polyacrylamide. After electrophoresis, a Milliblot SDE electroblot apparatus (Millipore, Bedford, Mass.) was used to transfer the proteins from the polyacrylamide gels to an Immobilon™ membrane filter (Millipore). Complete transfers were accomplished in 25-30 min at 500 mA and were assessed by tracking pre-stained molecular weight standards onto the membrane filter. Membrane filters were blocked by incubating in TBS (Tris buffered saline) containing 5% milk for 30 minutes at 37° C. The membranes were then washed in TBST (TBS with 0.05% Tween 20) and incubated overnight with antiphoshphotyrosine monoclonal antibody (1.5 μg/mL) in TBST. The primary antibody was removed, and the membranes were washed four times in TBST. To visualize the antibody reaction, the membranes were incubated for 3 hours at 37° C. with alkaline phosphatase-conjugated antimouse IgG diluted 1:1000 in TBST, washed 3 times in TBST, and developed for 15 to 30 minutes. Determination of molecular weights of immuno-stained proteins was performed by adding molecular weight standards (Bio Rad) to reference lanes and staining the membrane filters with amido black.
An estimate of the limit of detection of dioxinlike activity can be made using the 0.2 nM dose as the minimally effective dose. At this level of administration the 57 kDalton band becomes easily visible. Assuming a 100 μL incubation well (e.g., in a 96 well microtiter plate), the diethyl ether extract would have to contain approximately 37.5 pg of dioxin equivalents to initiate a tyrosylphosphorylation of the 57 kDalton protein. This amount would be present in the extract of a 2 g sample containing 20 parts per trillion of dioxin equivalents. If the 33 kDalton protein were used to quantitate the dioxinlike activity, the limit of detection based upon a response at the EC50 of 0.04 nM, would be approximately 4 ppt. Since it is generally believed that an action concentration of dioxin is 50 ppt and current instrumental methods detect approximately 3.5 ppt, this level of analysis is sufficient for initial regulatory or health considerations.

hepatic Ah receptor = conditions: room temperature, ligand concentration 10^-9 M; cited from earlier work

## Clc1cc2c(cc1Cl)Oc1cc(Cl)c(Cl)cc1O2 [TCDD, 2,3,7,8-tetrachlorodibenzo-p-dioxin]
[1]; ELISA, i.p., 24 hours after dosing, female C57BL/6 mice
  dose of maximal total protein tyrosylphosphorylation: 2 μg TCDD/kg
[1]; Mus musculus, ip, ELISA, i.p., 24 hours after dosing, female C57BL/6 mice, read-out: median effective dose (ED50), total hepatic S-9 pTP
  ED50: 0.5 µg/kg
[1]; ratio to EROD ED50 (A3), C57BL/6 mice
  separation of ED50s for total protein or 44 kDalton pTP and EROD: 10 factor
[2]; Homo sapiens, 16 h, limit-of-detection estimate, read-out: minimally effective dose (57 kDalton band easily visible)
  minimal effective concentration: 0.0002 µM
[2]; Homo sapiens, densitometry of immunoblot, 16 hours, read-out: EC50, 33 kDalton protein tyrosylphosphorylation
  EC50: 0.04 nM
[2]; densitometry of immunoblot, 16 hours
  concentration of maximal 33 kDalton protein tyrosylphosphorylation: 0.1 nM
[2]; immunoblot
  pTP at 57 kDaltons: highly phosphorylated at tyrosine residues; also recorded: appeared in all X3 cells treated with TCDD
  pTP at 110 kDaltons: decreased with increasing TCDD concentration; also recorded: decreased in intensity
Hepatic Ah receptor
  saturation half-life of binding: less than 1 hour
